Data taken from patent US9938261B2, “Heterocyclic compounds and methods of use thereof” (AMBIT BIOSCIENCES CORPORATION, priority 2011, dated 2018).

Legend:
FLT3 = target: T1, FLT3 (Homo sapiens, UniProt P36888); experiment: Competition binding assay, FLT3 Kd; settings: competition binding
T1 construct: made in house
T1 sequence (P36888 27-993): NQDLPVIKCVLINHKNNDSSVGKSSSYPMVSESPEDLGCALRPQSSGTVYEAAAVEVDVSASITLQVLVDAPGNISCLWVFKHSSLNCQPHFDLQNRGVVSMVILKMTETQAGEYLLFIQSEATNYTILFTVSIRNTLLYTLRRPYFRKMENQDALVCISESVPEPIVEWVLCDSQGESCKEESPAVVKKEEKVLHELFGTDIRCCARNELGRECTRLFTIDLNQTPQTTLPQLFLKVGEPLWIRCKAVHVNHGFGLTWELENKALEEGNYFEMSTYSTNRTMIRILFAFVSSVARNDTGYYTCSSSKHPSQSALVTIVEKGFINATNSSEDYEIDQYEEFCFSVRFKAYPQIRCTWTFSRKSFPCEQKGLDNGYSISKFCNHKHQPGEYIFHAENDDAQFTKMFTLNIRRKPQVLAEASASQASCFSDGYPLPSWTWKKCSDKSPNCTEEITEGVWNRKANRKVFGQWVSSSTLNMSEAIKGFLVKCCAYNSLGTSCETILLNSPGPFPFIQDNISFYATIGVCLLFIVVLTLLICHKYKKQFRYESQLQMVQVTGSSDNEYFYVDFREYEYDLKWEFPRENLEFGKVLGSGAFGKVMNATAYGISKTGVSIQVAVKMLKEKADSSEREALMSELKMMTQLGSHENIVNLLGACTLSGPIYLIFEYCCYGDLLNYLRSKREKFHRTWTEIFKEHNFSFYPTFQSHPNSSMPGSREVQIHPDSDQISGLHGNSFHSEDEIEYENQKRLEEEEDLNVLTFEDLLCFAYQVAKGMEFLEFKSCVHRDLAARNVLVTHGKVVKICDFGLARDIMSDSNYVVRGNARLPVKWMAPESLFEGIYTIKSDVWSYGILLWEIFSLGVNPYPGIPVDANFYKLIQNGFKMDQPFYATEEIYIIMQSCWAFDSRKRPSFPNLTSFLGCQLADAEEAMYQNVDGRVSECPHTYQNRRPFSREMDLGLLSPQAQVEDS
How it was run: (§1)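 Read-out is quantitative PCR of kinase recovered from affinity beads after competition with test compound. Binding reached equilibrium over 1 hour at room temperature; Kd values come from eleven-point threefold serial dilutions.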

CSF1R [1] = target: T2, CSF1R (Homo sapiens, UniProt P07333); experiment: HEK293 CSF1R phosphorylation MSD assay; format: cell-based; design: expressed in transfected cells; host or cells: HEK293; settings: HEK293 cells, M-CSF stimulated CSF1R phosphorylation, MSD; read-out: HEK293 pCSF1R M-CSF MSD:IC50
How it was run: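 HEK293 cells expressing CSF1R-FKBP were pretreated 2 h at 37° C with 9 half-log concentrations of compound (0.5% DMSO final), then stimulated 5 min with 50 ng/mL human M-CSF. Lysates captured on biotin-FK506 plates; phosphotyrosine detected by MSD electrochemiluminescence. IC50 versus DMSO, averaged from duplicate plates.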

PDGFRβ = target: T3, PDGFRβ (Homo sapiens, UniProt P09619); experiment: Competition binding assay, PDGFRβ Kd; settings: competition binding
T3 construct: made in house
How it was run: as §1

CSF1R [2] = target: T2, CSF1R; experiment: Competition binding assay, CSF1R Kd; design: made in house; settings: competition binding
How it was run: as §1

T3 sequence (P09619 33-1106): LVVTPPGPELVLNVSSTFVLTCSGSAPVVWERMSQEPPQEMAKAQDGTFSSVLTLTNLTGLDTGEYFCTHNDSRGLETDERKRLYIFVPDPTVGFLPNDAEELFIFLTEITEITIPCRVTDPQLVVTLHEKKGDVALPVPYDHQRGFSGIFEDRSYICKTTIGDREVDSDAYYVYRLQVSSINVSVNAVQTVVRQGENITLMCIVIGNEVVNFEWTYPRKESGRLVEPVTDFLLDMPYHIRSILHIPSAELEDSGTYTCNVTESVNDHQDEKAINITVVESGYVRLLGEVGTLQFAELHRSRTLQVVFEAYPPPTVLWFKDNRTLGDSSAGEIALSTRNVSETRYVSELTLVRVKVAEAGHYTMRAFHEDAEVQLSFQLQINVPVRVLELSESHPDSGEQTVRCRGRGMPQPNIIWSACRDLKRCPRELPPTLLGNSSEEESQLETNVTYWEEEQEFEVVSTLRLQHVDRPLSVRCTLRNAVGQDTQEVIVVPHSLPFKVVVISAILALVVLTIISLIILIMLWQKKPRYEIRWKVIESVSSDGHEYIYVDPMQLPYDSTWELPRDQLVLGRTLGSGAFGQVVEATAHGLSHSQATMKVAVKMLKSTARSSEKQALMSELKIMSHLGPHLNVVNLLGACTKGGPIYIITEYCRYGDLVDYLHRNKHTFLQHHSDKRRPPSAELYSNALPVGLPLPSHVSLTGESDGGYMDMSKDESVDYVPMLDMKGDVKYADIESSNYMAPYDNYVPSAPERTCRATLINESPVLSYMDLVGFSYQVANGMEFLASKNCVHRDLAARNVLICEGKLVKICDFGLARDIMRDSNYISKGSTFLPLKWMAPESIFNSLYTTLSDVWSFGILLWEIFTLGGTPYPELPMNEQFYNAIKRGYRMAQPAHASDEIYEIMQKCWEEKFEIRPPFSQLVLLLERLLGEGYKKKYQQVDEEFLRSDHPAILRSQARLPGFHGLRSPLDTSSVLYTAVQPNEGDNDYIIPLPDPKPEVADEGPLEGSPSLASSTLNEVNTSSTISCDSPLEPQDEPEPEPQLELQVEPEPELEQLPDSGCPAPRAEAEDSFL
T2 sequence (P07333 20-972): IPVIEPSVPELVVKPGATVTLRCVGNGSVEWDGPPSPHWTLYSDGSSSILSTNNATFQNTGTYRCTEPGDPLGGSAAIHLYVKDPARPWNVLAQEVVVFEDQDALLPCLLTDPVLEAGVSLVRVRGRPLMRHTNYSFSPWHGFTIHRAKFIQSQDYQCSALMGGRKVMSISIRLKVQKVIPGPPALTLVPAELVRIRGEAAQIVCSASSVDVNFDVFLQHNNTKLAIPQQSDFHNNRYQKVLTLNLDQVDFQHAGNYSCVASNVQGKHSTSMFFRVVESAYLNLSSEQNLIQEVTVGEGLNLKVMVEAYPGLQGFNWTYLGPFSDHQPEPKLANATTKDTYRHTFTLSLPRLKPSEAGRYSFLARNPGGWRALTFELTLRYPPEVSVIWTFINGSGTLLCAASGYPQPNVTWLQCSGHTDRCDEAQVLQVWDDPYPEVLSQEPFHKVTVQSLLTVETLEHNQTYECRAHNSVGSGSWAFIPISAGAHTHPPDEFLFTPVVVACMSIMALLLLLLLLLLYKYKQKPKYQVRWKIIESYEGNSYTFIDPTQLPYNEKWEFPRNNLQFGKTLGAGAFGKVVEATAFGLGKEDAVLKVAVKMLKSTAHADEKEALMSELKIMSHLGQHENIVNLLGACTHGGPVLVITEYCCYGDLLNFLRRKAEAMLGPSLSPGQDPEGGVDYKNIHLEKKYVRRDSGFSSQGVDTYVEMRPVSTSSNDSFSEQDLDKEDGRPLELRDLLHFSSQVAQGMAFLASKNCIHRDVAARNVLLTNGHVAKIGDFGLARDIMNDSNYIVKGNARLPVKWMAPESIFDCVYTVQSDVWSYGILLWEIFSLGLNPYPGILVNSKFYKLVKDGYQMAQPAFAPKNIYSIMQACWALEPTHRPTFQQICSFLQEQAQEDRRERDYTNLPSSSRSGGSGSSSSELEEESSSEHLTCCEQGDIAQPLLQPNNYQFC

Kd (FLT3) [nM] | IC50 (CSF1R [1]) [nM] | Kd (PDGFRβ) [nM] | Kd (CSF1R [2]) [nM] | Structure (SMILES)
1000 to 5000 | 50 to 200 | 50 to 500 | 20 to 50 | CC(C)(O)c1cnc2c(c1)ncn2Cc1ccc2nc(N[C@@H]3CCCC[C@H]3O)sc2c1 [Example 109, (1R,2R)-2-((6-((6-(2-hydroxypropan-2-yl)-3H-imidazo[4,5-b]pyridin-3-yl)methyl)benzo[d]thiazol-2-yl)amino)cyclohexanol]
≤ 200 | ≤ 50 | ≤ 50 | ≤ 5 | C=Cc1ccc2c(c1)ncn2Cc1ccc2nc(N[C@@H]3CCC[C@@H](O)[C@H]3O)sc2c1 [Example 232, (1R,2S,3R)-3-((6-((5-vinyl-1H-benzo[d]imidazol-1-yl)methyl)benzo[d]thiazol-2-yl)amino)cyclohexane-1,2-diol]
1000 to 5000 | 50 to 200 | 50 to 500 | 5 to 20 | C#Cc1ccc2c(c1)ncn2Cc1ccc2nc(N[C@@H]3CCCC[C@H]3O)sc2c1 [Example 121, (1R,2R)-2-((6-((5-ethynyl-1H-benzo[d]imidazol-1-yl)methyl)benzo[d]thiazol-2-yl)amino)cyclohexanol]
1000 to 5000 | ≤ 50 | 50 to 500 | ≤ 5 | CC(=O)c1ccc2c(c1)ncn2Cc1ccc2nc(N[C@@H]3CCCC[C@H]3O)sc2c1 [Example 110, 1-(1-((2-(((1R,2R)-2-hydroxycyclohexyl)amino)benzo[d]thiazol-6-yl)methyl)-1H-benzo[d]imidazol-5-yl)ethanone]
≤ 200 | ≤ 50 | ≤ 50 | ≤ 5 | N#Cc1ccc2ncc(Cc3ccc4nc(N[C@@H]5CCCC[C@H]5O)sc4c3)n2n1 [Example 221, 3-((2-(((1R,2R)-2-hydroxycyclohexyl)amino)benzo[d]thiazol-6-yl)methyl)imidazo[1,2-b]pyridazine-6-carbonitrile]
200 to 1000 | 50 to 200 | ≤ 50 | 5 to 20 | O[C@@H]1[C@H](O)CCC[C@H]1Nc1nc2ccc(Cn3cnc4cc(N5CCOCC5)ccc43)cc2s1 [Example 235, (1R,2S,3R)-3-((6-((5-morpholino-1H-benzo[d]imidazol-1-yl)methyl)benzo[d]thiazol-2-yl)amino)cyclohexane-1,2-diol]
200 to 1000 | ≤ 50 | ≤ 50 | 5 to 20 | O[C@@H]1CCCC[C@H]1Nc1nc2ccc(Cn3cnc4cc(I)cnc43)cc2s1 [Example 146, (1R,2R)-2-((6-((6-iodo-3H-imidazo[4,5-b]pyridin-3-yl)methyl)benzo[d]thiazol-2-yl)amino)cyclohexanol]
200 to 1000 | ≤ 50 | ≤ 50 | ≤ 5 | O[C@@H]1CCCC[C@H]1Nc1nc2ccc(Cc3cnc4ccc(Cl)nn34)cc2s1 [Example 158, (1R,2R)-2-((6-((6-chloroimidazo[1,2-b]pyridazin-3-yl)methyl)benzo[d]thiazol-2-yl)amino)cyclohexanol]
1000 to 5000 | > 500 | – | 20 to 50 | O[C@@H]1CCCC[C@H]1Nc1nc2ccc(Cn3cnc4cncnc43)cc2o1 [Example 118, (1R,2R)-2-((6-((9H-purin-9-yl)methyl)benzo[d]oxazol-2-yl)amino)cyclohexanol]
≤ 200 | ≤ 50 | ≤ 50 | ≤ 5 | O[C@@H]1CCCC[C@H]1Nc1nc2ccc(Cc3cnc4cccnn34)cc2s1 [Example 131, (1R,2R)-2-((6-(imidazo[1,2-b]pyridazin-3-ylmethyl)benzo[d]thiazol-2-yl)amino)cyclohexanol]
200 to 1000 | ≤ 50 | ≤ 50 | ≤ 5 | O[C@@H]1CCCC[C@H]1Nc1nc2ccc(Cn3cnc4cc(-n5cccn5)ccc43)cc2s1 [Example 160, (1R,2R)-2-((6-((5-(1H-pyrazol-1-yl)-1H-benzo[d]imidazol-1-yl)methyl)benzo[d]thiazol-2-yl)amino)cyclohexanol]
